Biological target: T1, human MGL from HeLa cells (Homo sapiens, UniProt Q99685)
T1 construct: combining endogenously expressed MGL from HeLa cells with test compounds; endogenous in cells; host or cells: HeLa cells / cell homogenates
T1 sequence (Q99685 1-303): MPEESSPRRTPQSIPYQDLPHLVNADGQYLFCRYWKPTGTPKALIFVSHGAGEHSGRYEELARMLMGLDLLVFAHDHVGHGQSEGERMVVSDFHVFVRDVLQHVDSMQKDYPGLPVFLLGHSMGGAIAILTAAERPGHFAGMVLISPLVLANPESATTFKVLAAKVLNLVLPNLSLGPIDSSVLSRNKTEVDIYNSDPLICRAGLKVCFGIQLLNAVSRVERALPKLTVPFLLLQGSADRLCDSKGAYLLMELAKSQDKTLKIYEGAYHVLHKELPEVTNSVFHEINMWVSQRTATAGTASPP
Assay: In vitro MGL activity assay: [glycerol-1,3-3H]-oleyl glycerol cleavage by MGL from HeLa cells
Format: biochemical
Settings: 300 nM [Glycerol-1,3-3H]-oleyl glycerol, one hour incubation
From the text: MGL is the predominant hydrolase in HeLa cells/cell homogenates.

Row | SMILES | IC50 [nM]
1 | Cn1nc2c(c1-c1ccccc1)CCN(C(=O)c1ccccc1-n1cncn1)C2 [Example 18, (2-(1H-1,2,4-Triazol-1-yl)phenyl)(2-methyl-3-phenyl-2,4,5,7-tetrahydro-6H-pyrazolo[3,4-c]pyridin-6-yl)methanone] | 671
2 | Cc1c(C(=O)N2CCc3c(nn(C)c3-c3ccccc3)C2)cccc1N1CCOCC1 [Example 19, (2-Methyl-3-morpholinophenyl)(2-methyl-3-phenyl-2,4,5,7-tetrahydro-6H-pyrazolo[3,4-c]pyridin-6-yl)methanone] | 4820
3 | Cn1ncc(C(=O)N2CCc3c(nn(C)c3-c3ccccc3)C2)c1Cl [Example 20, (5-Chloro-1-methyl-1H-pyrazol-4-yl)(2-methyl-3-phenyl-2,4,5,7-tetrahydro-6H-pyrazolo[3,4-c]pyridin-6-yl)methanone] | 2090
4 | Cn1nc2c(c1-c1ccccc1)CCN(C(=O)c1cnn(C)c1C1CC1)C2 [Example 22, (5-Cyclopropyl-1-methyl-1H-pyrazol-4-yl)(2-methyl-3-phenyl-2,4,5,7-tetrahydro-6H-pyrazolo[3,4-c]pyridin-6-yl)methanone] | 683
5 | Cn1nc2c(c1-c1ccccc1)CCN(C(=O)c1ncn(-c3ccccc3)n1)C2 [Example 23, (2-Methyl-3-phenyl-2,4,5,7-tetrahydro-6H-pyrazolo[3,4-c]pyridin-6-yl)(1-phenyl-1H-1,2,4-triazol-3-yl)methanone] | 847
6 | Cn1nc2c(c1-c1ccccc1)CCN(C(=O)c1cccc(OC(F)F)n1)C2 [Example 24, (6-(Difluoromethoxy)pyridin-2-yl)(2-methyl-3-phenyl-2,4,5,7-tetrahydro-6H-pyrazolo[3,4-c]pyridin-6-yl)methanone] | 2560
7 | Cn1nc2c(c1-c1ccccc1)CCN(C(=O)c1cccc(OC(F)(F)F)n1)C2 [Example 25, (2-Methyl-3-phenyl-2,4,5,7-tetrahydro-6H-pyrazolo[3,4-c]pyridin-6-yl)(6-(trifluoromethoxy)pyridin-2-yl)methanone] | 2430
8 | Cn1nc2c(c1-c1ccccc1)CCN(C(=O)c1cccc3c1NC(=O)CO3)C2 [Example 26, 5-(2-Methyl-3-phenyl-4,5,6,7-tetrahydro-2H-pyrazolo[3,4-c]pyridine-6-carbonyl)-2H-benzo[b][1,4]oxazin-3(4H)-one] | 2460
9 | CN1CCOc2cc(C(=O)N3CCc4c(nn(C)c4-c4ccccc4)C3)ccc21 [Example 27, (4-Methyl-3,4-dihydro-2H-benzo[b][1,4]oxazin-7-yl)(2-methyl-3-phenyl-2,4,5,7-tetrahydro-6H-pyrazolo[3,4-c]pyridin-6-yl)methanone] | 290
10 | Cn1nc2c(c1-c1ccccc1)CCN(C(=O)c1cccc3c1OCO3)C2 [Example 28, Benzo[d][1,3]dioxol-4-yl(2-methyl-3-phenyl-2,4,5,7-tetrahydro-6H-pyrazolo[3,4-c]pyridin-6-yl)methanone] | 4000
11 | Cn1nc2c(c1-c1ccccc1)CCN(C(=O)c1ccc3c(c1)OCO3)C2 [Example 29, Benzo[d][1,3]dioxol-5-yl(2-methyl-3-phenyl-2,4,5,7-tetrahydro-6H-pyrazolo[3,4-c]pyridin-6-yl)methanone] | 1950
12 | Cn1nc2c(c1-c1ccccc1)CCN(C(=O)c1cccc3c1OC(F)(F)O3)C2 [Example 30, (2,2-Difluorobenzo[d][1,3]dioxol-4-yl)(2-methyl-3-phenyl-2,4,5,7-tetrahydro-6H-pyrazolo[3,4-c]pyridin-6-yl)methanone] | 1040
13 | Cn1nc2c(c1-c1ccccc1)CCN(C(=O)c1cc3[nH]ccc3s1)C2 [Example 31, (2-Methyl-3-phenyl-2,4,5,7-tetrahydro-6H-pyrazolo[3,4-c]pyridin-6-yl)(4H-thieno[3,2-b]pyrrol-2-yl)methanone] | 1230
14 | Cc1nc2sccn2c1C(=O)N1CCc2c(nn(C)c2-c2ccccc2)C1 [Example 32, (2-Methyl-3-phenyl-2,4,5,7-tetrahydro-6H-pyrazolo[3,4-c]pyridin-6-yl)(6-methylimidazo[2,1-b]thiazol-5-yl)methanone] | 1090
15 | Cn1nc2c(c1-c1ccccc1)CCN(C(=O)c1cccc3ccoc13)C2 [Example 33, Benzofuran-7-yl(2-methyl-3-phenyl-2,4,5,7-tetrahydro-6H-pyrazolo[3,4-c]pyridin-6-yl)methanone] | 89.9
16 | Cn1nc2c(c1-c1ccccc1)CCN(C(=O)c1cccc3occc13)C2 [Example 34, Benzofuran-4-yl(2-methyl-3-phenyl-2,4,5,7-tetrahydro-6H-pyrazolo[3,4-c]pyridin-6-yl)methanone] | 300
17 | Cn1nc2c(c1-c1ccccc1)CCN(C(=O)c1ccc3occc3c1)C2 [Example 35, Benzofuran-5-yl(2-methyl-3-phenyl-2,4,5,7-tetrahydro-6H-pyrazolo[3,4-c]pyridin-6-yl)methanone] | 482
18 | Cn1nc2c(c1-c1ccccc1)CCN(C(=O)c1coc3ccccc13)C2 [Example 36, Benzofuran-3-yl(2-methyl-3-phenyl-2,4,5,7-tetrahydro-6H-pyrazolo[3,4-c]pyridin-6-yl)methanone] | 750
19 | Cn1nc2c(c1-c1ccccc1)CCN(C(=O)c1cccc3ccsc13)C2 [Example 37, Benzo[b]thiophen-7-yl(2-methyl-3-phenyl-2,4,5,7-tetrahydro-6H-pyrazolo[3,4-c]pyridin-6-yl)methanone] | 47.8
20 | Cn1nc2c(c1-c1ccccc1)CCN(C(=O)c1cccc3sccc13)C2 [Example 38, Benzo[b]thiophen-4-yl(2-methyl-3-phenyl-2,4,5,7-tetrahydro-6H-pyrazolo[3,4-c]pyridin-6-yl)methanone] | 68
21 | Cn1nc2c(c1-c1ccccc1)CCN(C(=O)c1ccc3sccc3c1)C2 [Example 39, Benzo[b]thiophen-5-yl(2-methyl-3-phenyl-2,4,5,7-tetrahydro-6H-pyrazolo[3,4-c]pyridin-6-yl)methanone] | 136
22 | Cn1nc2c(c1-c1ccccc1)CCN(C(=O)c1csc3ccccc13)C2 [Example 40, Benzo[b]thiophen-3-yl(2-methyl-3-phenyl-2,4,5,7-tetrahydro-6H-pyrazolo[3,4-c]pyridin-6-yl)methanone] | 141

The next lines start with the values.

Row | IC50 [nM] | SMILES
23 | 64.6 | Cn1nc2c(c1-c1ccccc1)CCN(C(=O)c1sc3ccccc3c1Cl)C2 [Example 41, (3-Chlorobenzo[b]thiophen-2-yl)(2-methyl-3-phenyl-2,4,5,7-tetrahydro-6H-pyrazolo[3,4-c]pyridin-6-yl)methanone]
24 | 23.6 | Cn1nc2c(c1-c1ccccc1)CCN(C(=O)c1cccc3[nH]ccc13)C2 [Example 42, (1H-Indol-4-yl)(2-methyl-3-phenyl-2,4,5,7-tetrahydro-6H-pyrazolo[3,4-c]pyridin-6-yl)methanone]
25 | 64.7 | Cn1nc2c(c1-c1ccccc1)CCN(C(=O)c1ccc3[nH]ccc3c1)C2 [Example 43, (1H-Indol-5-yl)(2-methyl-3-phenyl-2,4,5,7-tetrahydro-6H-pyrazolo[3,4-c]pyridin-6-yl)methanone]
26 | 319 | Cn1nc2c(c1-c1ccccc1)CCN(C(=O)c1c[nH]c3ccccc13)C2 [Example 44, (1H-Indol-3-yl)(2-methyl-3-phenyl-2,4,5,7-tetrahydro-6H-pyrazolo[3,4-c]pyridin-6-yl)methanone]
27 | 1460 | Cn1nc2c(c1-c1ccccc1)CCN(C(=O)c1cccc3cc[nH]c13)C2 [Example 45, (1H-Indol-7-yl)(2-methyl-3-phenyl-2,4,5,7-tetrahydro-6H-pyrazolo[3,4-c]pyridin-6-yl)methanone]
28 | 359 | Cn1nc2c(c1-c1ccccc1)CCN(C(=O)c1ccc3cc[nH]c3c1)C2 [Example 46, (1H-Indol-6-yl)(2-methyl-3-phenyl-2,4,5,7-tetrahydro-6H-pyrazolo[3,4-c]pyridin-6-yl)methanone]
29 | 70.2 | Cn1nc2c(c1-c1ccccc1)CCN(C(=O)c1c(F)ccc3[nH]ccc13)C2 [Example 47, (5-Fluoro-1H-indol-4-yl)(2-methyl-3-phenyl-2,4,5,7-tetrahydro-6H-pyrazolo[3,4-c]pyridin-6-yl)methanone]
30 | 103 | Cn1nc2c(c1-c1ccccc1)CCN(C(=O)c1c[nH]c3c(Cl)cccc13)C2 [Example 48, (7-Chloro-1H-indol-3-yl)(2-methyl-3-phenyl-2,4,5,7-tetrahydro-6H-pyrazolo[3,4-c]pyridin-6-yl)methanone]
31 | 461 | Cn1nc2c(c1-c1ccccc1)CCN(C(=O)c1c[nH]c3cccc(Cl)c13)C2 [Example 49, (4-Chloro-1H-indol-3-yl)(2-methyl-3-phenyl-2,4,5,7-tetrahydro-6H-pyrazolo[3,4-c]pyridin-6-yl)methanone]
32 | 2000 | Cc1cccc2cc(C(=O)N3CCc4c(nn(C)c4-c4ccccc4)C3)[nH]c12 [Example 50, (7-Methyl-1H-indol-2-yl)(2-methyl-3-phenyl-2,4,5,7-tetrahydro-6H-pyrazolo[3,4-c]pyridin-6-yl)methanone]
33 | 15.6 | Cn1nc2c(c1-c1ccccc1)CCN(C(=O)c1cccc3c1ccn3C)C2 [Example 51, (1-Methyl-1H-indol-4-yl)(2-methyl-3-phenyl-2,4,5,7-tetrahydro-6H-pyrazolo[3,4-c]pyridin-6-yl)methanone]
34 | 138 | Cn1nc2c(c1-c1ccccc1)CCN(C(=O)c1cn(C)c3ccccc13)C2 [Example 52, (1-Methyl-1H-indol-3-yl)(2-methyl-3-phenyl-2,4,5,7-tetrahydro-6H-pyrazolo[3,4-c]pyridin-6-yl)methanone]
35 | 32.2 | Cn1nc2c(c1-c1ccccc1)CCN(C(=O)c1noc3ccccc13)C2 [Example 53, Benzo[d]isoxazol-3-yl(2-methyl-3-phenyl-2,4,5,7-tetrahydro-6H-pyrazolo[3,4-c]pyridin-6-yl)methanone]
